Measurements taken from US20240254129A1, “HETEROCYCLIC COMPOUNDS AND USES THEREOF” (Kumquat Biosciences Inc., priority 2021, published 2024).
Like-named read-outs stand apart in the source and are kept apart here.

Tests used:
[1] = target: GST-tagged K-Ras mutant / His-tagged hSOS1 (Homo sapiens, UniProt P01116); test: HTRF assay, K-Ras mutant / SOS1 interaction; assay type: binding; conditions: read-out: IC50 against mutant Kras
Summary of the method: (§1)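 Compounds tested in duplicate from 10 μM down to 0.01 μM, incubated about 10 min or longer with GST-K-Ras/anti-GST-Eu and His-hSOS1/anti-6His-XL665 in ~5 mM HEPES pH 7.4 buffer with ~150 mM NaCl, DTT, BSA and Igepal. IC50 derived from 665/620 nm emission ratio.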

wildtype Kras / hSOS1 = target: T1, wildtype Kras / hSOS1 (Homo sapiens, UniProt P01116); test: HTRF assay, wildtype Kras / SOS1 interaction; assay type: binding; conditions: read-out: IC50 against wildtype Kras
T1 construct: made in house; host or cells: E. coli BL21 (DE3)
Summary of the method: as §1

[2] = compound nos. 102-196, general methodology of example 5

T1 sequence (P01116 1-188 isoform P01116-2): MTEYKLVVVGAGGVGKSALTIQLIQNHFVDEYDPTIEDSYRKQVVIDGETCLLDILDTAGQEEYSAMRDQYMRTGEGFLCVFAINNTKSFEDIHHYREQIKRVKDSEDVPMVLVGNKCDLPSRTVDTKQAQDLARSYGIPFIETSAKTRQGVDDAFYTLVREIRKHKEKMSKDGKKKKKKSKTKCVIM
GST-tagged K-Ras mutant / His-tagged hSOS1, sequence (P01116 whole entry G12D, form open): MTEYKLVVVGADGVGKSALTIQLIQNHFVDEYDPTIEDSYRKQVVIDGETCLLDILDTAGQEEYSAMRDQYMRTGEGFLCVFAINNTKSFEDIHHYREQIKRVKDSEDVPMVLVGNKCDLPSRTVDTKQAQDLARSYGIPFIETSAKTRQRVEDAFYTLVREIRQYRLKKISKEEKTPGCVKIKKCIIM

Compound: CN1CCC[C@@H]1COc1nc(N2CCNCC(F)(F)C2)c2cc(Cl)c(-c3cccc4sc(N)nc34)c(F)c2n1 [Compound 113, 4-(6-chloro-4-(6,6-difluoro-1,4-diazepan-1-yl)-8-fluoro-2-(((R)-1-methylpyrrolidin-2-yl)methoxy)quinazolin-7-yl)benzo[d]thiazol-2-amine]
- IC50 [1, 2]: < 500 nM
- IC50 (wildtype Kras / hSOS1; [2]): < 500 nM

Compound: Nc1nc2c(-c3c(Cl)cc4c(N5CC6CCC(C5)N6)nc(OCC5(CN6CCCC6)CC5)nc4c3F)cccc2o1 [Compound 653, 4-(4-(3,8-diazabicyclo-[3.2.1]octan-3-yl)-6-chloro-8-fluoro-2-((1-(pyrrolidin-1-ylmethyl)cyclopropyl)meth-oxy)quinazolin-7-yl)benzo-[d]oxazol-2-amine]
- IC50 ([1]; compound nos. 401-703): < 500 nM
- IC50 (wildtype Kras / hSOS1; compound nos. 401-703): > 500 nM

Compound: Fc1c(-c2ccccc2-c2ccccc2)c(Cl)cc2c(N3CCCCCC3)nc(OCC34CCCN3CCC4)nc12 [Compound 603, 7-([1,1′-biphenyl]-2-yl)-4-(azepan-1-yl)-6-chloro-8-fluoro-2-((tetrahydro-1H-pyrrolizin-7a(5H)-yl)meth-oxy)quinazoline]
- IC50 ([1]; compound nos. 401-703): > 500 nM
- IC50 (wildtype Kras / hSOS1; compound nos. 401-703): > 500 nM

Compound: CN(C)C1CN(c2nc(N3CC4CCC(C3)N4)c3cc(Cl)c(-c4ccc(F)c5sc(N)nc45)c(F)c3n2)C1 [Compound 503, 4-(4-(3,8-diazabicyclo-[3.2.1]octan-3-yl)-6-chloro-2-(3-(dimethyl-amino)azetidin-1-yl)-8-fluoroquinazolin-7-yl)-7-fluorobenzo[d]thiazol-2-amine]
- IC50 ([1]; compound nos. 401-703): > 500 nM
- IC50 (wildtype Kras / hSOS1; compound nos. 401-703): > 500 nM

Compound: Fc1c(-c2cccc3c2CCCC3)c(Cl)cc2c(N3CC4CCC(C3)N4)nc(OC[C@@]34CCCN3C[C@H](F)C4)nc12 [Compound 619, 4-(3,8-diazabicyclo[3.2.1]-octan-3-yl)-6-chloro-8-fluoro-2-(((2R,7aS)-2-fluorotetrahydro-1H-pyrrol-izin-7a(5H)-yl)methoxy)-7-(5,6,7,8-tetrahydronaph-thalen-1-yl)quinazoline]
- IC50 ([1]; compound nos. 401-703): > 500 nM
- IC50 (wildtype Kras / hSOS1; compound nos. 401-703): > 500 nM

Compound: Nc1cc(-c2c(Cl)cc3c(N4CCCCCC4)nc(OCC45CCCN4CCC5)nc3c2F)ccc1F [Compound 670, 5-(4-(azepan-1-yl)-6-chloro-8-fluoro-2-((tetrahydro-1H-pyrrolizin-7a(5H)-yl)meth-oxy)quinazolin-7-yl)-2-fluoroaniline]
- IC50 ([1]; compound nos. 401-703): > 500 nM
- IC50 (wildtype Kras / hSOS1; compound nos. 401-703): > 500 nM

Compound: Nc1nc2c(-c3c(Cl)cc4c(N5CCCNCC5)nc(OC[C@@]56CCCN5C[C@H](F)C6)nc4c3F)ccc(F)c2s1 [Compound 621, 4-(6-chloro-4-(1,4-diazepan-1-yl)-8-fluoro-2-(((2R,7aS)-2-fluorotetrahydro-1H-pyrrolizin-7a(5H)-yl)meth-oxy)quinazolin-7-yl)-7-fluorobenzo[d]thiazol-2-amine]
- IC50 ([1]; compound nos. 401-703): < 500 nM
- IC50 (wildtype Kras / hSOS1; compound nos. 401-703): > 500 nM

Compound: N#Cc1c(N)sc2c(F)ccc(-c3c(Cl)cc4c(N5CCCS(=O)(=O)CC5)nc(OC[C@@]56CCCN5C[C@H](F)C6)nc4c3F)c12 [Compound 574, 2-amino-4-(6-chloro-4-(1,1-dioxido-1,4-thiazepan-4-yl)-8-fluoro-2-(((2R,7aS)-2-fluorotetrahydro-1H-pyrrol-izin-7a(5H)-yl)methoxy)-quinazolin-7-yl)-7-fluoro-benzo[b]thiophene-3-carbonitrile]
- IC50 ([1]; compound nos. 401-703): < 500 nM
- IC50 (wildtype Kras / hSOS1; compound nos. 401-703): > 500 nM

Compound: CO[C@@H]1CN(C)C[C@H]1Oc1nc(N2CC3CCC(C2)N3)c2cc(Cl)c(-c3ccc(F)c4sc(N)nc34)c(F)c2n1 [Compound 448, 4-(4-(3,8-diazabicyclo-[3.2.1]-octan-3-yl)-6-chloro-8-fluoro-2-(((3R,4R)-4-methoxy-1-methylpyrrolidin-3-yl)oxy)quinazolin-7-yl)-7-fluorobenzo[d]thiazol-2-amine]
- IC50 ([1]; compound nos. 401-703): < 500 nM
- IC50 (wildtype Kras / hSOS1; compound nos. 401-703): < 500 nM
